Reference: patent publication KR20110136074A, “안정한 에스-베포타스틴 함유 약학조성물 및 이의 제조방법” (이우영, priority 2010, dated 2011)

Assays:
[1] = 40℃, 75% relative humidity; cited from earlier work
[2] = by moisture in additives when formulated with usual excipients and binders; cited from earlier work
[3] = Optical purity (chiral HPLC) after storage for 4 weeks at 60℃, 75% relative humidity, exposed or sealed; assay type: physicochemical

| optical purity after 4 weeks, exposed state ([3]; exposed) [%] | optical purity after 4 weeks ([3]; exposed or sealed) | optical purity after 4 weeks, sealed state ([3]; sealed) [%] | SMILES | formation of (R)-isomer and degradation products [1] | racemization to the (R)-isomer [2] |
| --- | --- | --- | --- | --- | --- |
| – | – | – | O=C(O)CCCN1CCC(O[C@@H](c2ccc(Cl)cc2)c2ccccn2)CC1.O=S(=O)(O)c1ccccc1 [(S)-베포타스틴 벤젠술폰산염] | (R)-배열의 이성체 및 분해물이 생성된다 | – |
| 95.56 | 95.5~97.4% | 97.32 | O=C(O)CCCN1CCC(O[C@@H](c2ccc(Cl)cc2)c2ccccn2)CC1 [유상의 (S)-베포타스틴] | – | (R)-배열의 이성체로 라세미화가 일어나 |
